Results published in PubChem BioAssay (NCI).
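Step 1: Grow cells in 96-well plates. Step 2: Expose to compound for 48 hours at 5 concentrations. Step 3: Interpolate endpoints linearly; if unreached, use highest concentration. GI50 marks 50% less growth. TGI: total growth inhibition.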

Key:
Assay in all cases: NCI tumour cell line growth inhibition, 48 h
M19-MEL melanoma = test system: M19-MEL melanoma
DMS 273 small cell lung = test system: DMS 273 small cell lung
RXF-631 renal = test system: RXF-631 renal
P388 leukemia = test system: P388 leukemia
P388/ADR leukemia = test system: P388/ADR leukemia
SN12K1 renal = test system: SN12K1 renal

| Compound | TGI (M19-MEL melanoma) | TGI (DMS 273 small cell lung) | TGI (RXF-631 renal) | TGI (P388 leukemia) | TGI (P388/ADR leukemia) | TGI (SN12K1 renal) | GI50 (DMS 273 small cell lung) |
| --- | --- | --- | --- | --- | --- | --- | --- |
| CC(C)OP(=O)(OC(C)C)/C(=N/Nc1ccc([N+](=O)[O-])cc1)NNC(=O)c1ccccc1 | 41.2 µM | – | – | – | – | – | – |
| Cc1cc(N(CCC#N)CCC#N)ccc1/C=C(\N=[N+]=[N-])C(=O)NC(=O)COc1ccccc1 | – | > 100 µM | > 100 µM | – | – | – | – |
| COc1ccc(OC)c(CCc2ccccc2CC(=O)O)c1 | > 100 µM | > 100 µM | – | – | – | – | – |
| CCCCCCCC(=O)OC(COC(=O)Cc1ccccc1)COC(=O)C(C)(C)C (centres undefined) | > 100 µM | > 100 µM | > 100 µM | – | – | – | – |
| Cc1nc2c(n1Cc1ccc(F)cc1)C(=O)c1ccccc1C2=O | 13.5 µM | > 100 µM | – | – | – | – | – |
| CC1=C(N2CC2)C(=O)C(C)=C(N2CC2)C1=O | 0.92 µM | 1.38 µM | – | – | – | – | – |
| CCCCCC1CC(C(C)=O)CN1c1ccc(F)cc1 (centres undefined) | > 100 µM | > 100 µM | – | – | – | – | – |
| O=C(/C=C/c1ccc(O)c(O)c1)c1ccc(O)cc1O | 27.1 µM | 25 µM | – | – | – | – | – |
| CCC/C=C/C=C\C(=O)O[C@@H]1[C@@H](C)[C@]2(O)[C@@H]3C=C(C)C(=O)[C@H]3CC(COC(C)=O)=C[C@H]2[C@@H]2C(C)(C)[C@]12OC(C)=O | 76.5 µM | 82.4 µM | – | 9.61 µM | 300 µM | 48.8 µM | – |
| N#C/C(=C\c1ccccc1F)C(=O)c1ccccc1 | > 100 µM | > 100 µM | – | – | – | – | – |
| CN(CCO)c1nc(=O)c2c(n1C1OC(CO)C(O)C(O)C1O)CCCC2 (centres undefined) | > 100 µM | > 100 µM | – | – | – | – | – |
| CCOC(=O)C(C(=O)OCC)S(C)(=O)=O | > 100 µM | > 100 µM | > 100 µM | – | – | – | – |
| NCCCC(N)(C(=O)O)C(F)F (centres undefined) | > 5000 µM | > 5000 µM | – | > 5000 µM | > 5000 µM | > 1580 µM | – |
| COc1cc(Cn2c3ccccc3c3cc(C)cc(OC)c32)cc2c1[nH]c1ccccc12 | > 25 µM | > 25 µM | – | – | – | – | 15.2 µM |
| CC(=O)C(C(=O)C(=O)Nc1cc(Cl)c(Cl)cc1Cl)c1csc(N)n1 (centres undefined) | > 100 µM | > 100 µM | > 100 µM | – | – | – | – |
| Nc1n[nH]c(N)n1 | > 10000 µM | 6450 µM | – | 4240 µM | 8070 µM | > 10000 µM | – |
| COc1cc2cnc3c4cc(O)ccc4ccc3c2cc1OC | > 100 µM | – | – | – | – | – | – |
| O=S1(=O)OCCOS(=O)(=O)C1(Br)Br | > 100 µM | > 100 µM | – | – | – | – | – |
| COc1ccccc1NC(=O)C(=O)C(c1cnc2ccc([N+](=O)[O-])cc2n1)[N+](=O)[O-] (centres undefined) | > 100 µM | > 100 µM | > 100 µM | – | – | – | – |
| C/C(CC(=O)Nc1cccc([N+](=O)[O-])c1)=N/NC(N)=S | > 100 µM | – | – | – | – | – | – |
| O=C1CS(=O)c2ccccc2N1 (centres undefined) | > 100 µM | 33.9 µM | > 100 µM | – | – | – | – |
